Columns and labels:
Type in all cases: cell-based, human
PE/CA-PJ49 tumor cells [1] = assay: MTT drug sensitivity (viability) assay, tumor cells; conditions: PE/CA-PJ49, 24 h
Procedure: (§1) The MTT assay is based on the ability of viable cells to reduce the reagent 3-(4,5-dimethylthiazol-2-yl)-2,5-diphenyltetrazolium bromide to colored formazan compounds [48]. Because the transformation is only possible in viable cells, the amount of blue formazan is proportional to the number of viable cells and thus, a linear dependence exists between cell activity and absorbance. Cells were seeded in triplicate in 96-well plates at a density of 5000 cells/well, incubated at 37 °C for 24 h. […] After the incubation period, 20 μL MTT (5 mg/mL in PBS) was added and further incubated for 4 h. The supernatant was removed, and the formazan product was analyzed spectrophotometrically (570 nm) after dissolution in DMSO. Wells without cells serve as a blank, and their absorbance was subtracted from the other results. Untreated cells were used as control and their viability was assumed as 100%. Results were expressed as mean values of three determinations ± standard deviation (SD). Data are presented as percent of cell viability and compared to untreated [Viability% = (T − B)/(U − B) × 100, {where T = absorbance of treated cells; U = absorbance of untreated cells, B = absorbance of blank}]. Once percent viability was obtained, the drug response curve was generated, and inhibitory concentration (IC50 and IC25) was calculated using GraphPad Prism version 5.01 [49].
(§2) SI values of more than 2 were considered as indicative of high selectivity.
(§3) The anticancer cytotoxic activity in vitro was evaluated by the MTT assay. […] The most widely used and informative measure of a drug’s efficacy is IC50-the half-maximal inhibitory concentration. IC50 was determined at half of the difference between the maximum (plateau) and minimum absorbance values, by plotting the absorbance value at 570 nm (Y axis) versus the concentration of the compound analysed (X axis). The IC50 values were reported as a mean of three independent experiments ± standard deviation (S.D.).

PE/CA-PJ49 tumor cells [2] = assay: Cell cycle phase distribution by PI flow cytometry, tumor cells; conditions: 24 h, CisPt 20 μM
Procedure: (§4) For analysis of cell-cycle distribution, the cells were collected after treatment, fixed with 70% ethanol for at least one hour at 4 °C. The cells were stained with propidium iodide (PI) an agent which intercalates into the major groove of double-stranded DNA and produces a highly fluorescent adduct that can be excited at 488 nm with a broad emission around 600 nm. Since PI can also bind to double-stranded RNA, it is necessary to treat the cells with RNase for optimal DNA resolution. Cells (1×10^6 cells/mL) were washed in PBS and centrifuge at 300× g, 5 min at 4 °C. The pellet of the cells were incubated for 10 min at 37 °C with 0.5 mg/sample RNase A and then was added 10 μg/sample of PI staining solution to cell pellet, mix well and incubated 10 min at 37 °C. The samples stored at 4 °C until analyzed by flow cytometry. A minimum of 20,000 events for each sample were collected using a FACS CantoII flow cytometer and ModFIT software (BectonDickinson) and used to determine the cell cycle phase distribution after debris exclusion.
(§5) The progression through the cell cycle phases induced by treatment were evaluated by flow cytometry using a FACSCanto II flow cytometer. Data analysis were performed using the ModFit 3.2 program which offers the possibility of evaluating the cell cycle phases distribution (G0/G1, S, G2 + M).

HUVEC normal cells [3] = assay: MTT drug sensitivity (viability) assay, normal cells; conditions: 24 h
Procedure: as §1, §2, §3

[4] = tested on: p21 protein (CIP1/CDKN1A) expression in PE/CA-PJ49; assay: Total p21 protein ELISA in cell lysates, tumor cells; conditions: 24 h
Procedure: (§6) After incubation, cells were washed twice with ice-cold PBS, scraped, pelleted and lysed in RIPA buffer (Pierce) supplemented with protease inhibitor cocktail (Roche) and phosphatase inhibitor (Roche) for 30 min on ice. The lysates were transfered into microcentrifuge tubes and centrifuged at 14,000× g for 5 min at 4 °C followed by sonication (10–15 s × 3). The supernatants were collected into clean microcentrifuge tubes and stored at −80 °C. Lysates protein concentration were quantified by BCA protein assay kit (Thermo Scientific) and aliquots of 50 μg of total cell lysate were used for ELISA assay.
(§7) DuoSetR IC ELISA-Human Total p21/CIP1/CDKN1A(: DYC1047-2) was purchased from R&D Systems Inc. and contains the basic components required for the development of sandwich ELISAs to measure human p21 protein also known as CIP1 and CDKN1A in cell lysates. An immobilized capture antibody specifically binds human p21. After washing away unbound material, a biotinylated detection antibody specific for human p21 is used to detect the captured protein, utilizing a standard Streptavidin-HRP format. All experiments were performed in triplicates and absorbance was measured at λ = 450 nm using a Dynex plate reader.
(§8) In cancer development and evolution p21 protein might acts as an oncogene or tumor suppressor and for this reason it could be an important player in processes such as the cancer aggressiveness or the response to chemotherapy. In this study, using ELISA assay we analyzed the expression level of p21 in the tumor cells (PE-CA/PJ49) compared to a normal cells (HUVEC).

PE/CA-PJ49 tumor cells [5] = assay: Annexin V-FITC/PI apoptosis flow cytometry, tumor cells; conditions: 24 h
Procedure: (§9) The apoptosis assay was carried out with the Annexin V-FITC kit using the manufacturer’s (BD Pharmingen) protocol. Treated and untreated 1 × 10^6 cells/mL were resuspended in cold binding buffer and staining simultaneously with 5 μL FITC-Annexin V (green fluorescence) and 5 μL propidium iodide (PI) in the dark, at room temperature for 15 min. Then, 400μL of Annexin V binding buffer was added and 10,000 cells/sample were acquired using a BD Canto II flow cytometer. The analysis was performed using DIVA 6.2 software in order to discriminate viable cells (FITC^−PI^−) from necrotic cells […] and early apoptosis (FITC^+PI^−) from late apoptosis.
(§10) Apoptosis can be seen as an efficient method of preventing malignant transformation, as it ensures the removal of cells which present with genetic alterations. Deficient apoptosis can promote the development of cancer, both through the accumulation of cells found during division and the blocking of the removal of cells with high malignant potential genetic variations. The factors which determine the cells to follow one of three possible pathways are not yet known – the start of apoptosis after cellular injury, the repair of the lesion or the continuation of the cellular cycle. Many therapeutical agents have anti-tumoral effects generated by their capacity to activate the apoptotic process. […] The flow cytometric analysis was performed using DIVA 6.2 software and allowed to discriminate viable cells (FITC^−PI^− = Q3) from necrotic cells (FITC^−PI^+ = Q1) and early apoptosis (FITC^+PI^− = Q4) from late apoptosis (FITC^+PI^+ = Q2).

[6] = tested on: p21 protein (CIP1/CDKN1A) expression in HUVEC; assay: Total p21 protein ELISA in cell lysates, normal cells; conditions: 24 h
Procedure: as §6, §7, §8

HUVEC normal cells [7] = assay: Cell cycle phase distribution by PI flow cytometry, normal cells; conditions: 24 h
Procedure: as §4, §5

HUVEC normal cells [8] = assay: Annexin V-FITC/PI apoptosis flow cytometry, normal cells; conditions: 24 h; for Apoptoza Tarzie = Q2 (%): late apoptosis; for Apoptoza Totală = Q2+Q4 (%): total apoptosis
Procedure: as §9, §10

## N.N.[Cl][Pt][Cl] [CisPt, cis-diamminedichloroplatinum]
PE/CA-PJ49 tumor cells [1]; CisPt 5 μM vs untreated cells
  cell viability (MTT): significantly affected
PE/CA-PJ49 tumor cells [1]; CisPt 20 μM vs untreated cells
  cell viability (MTT): significantly affected
PE/CA-PJ49 tumor cells [1]; MTT
  IC 25: 3.95 ± 1.2 µM
  IC50: 9.72 ± 1.7 µM
PE/CA-PJ49 tumor cells [2]
  G2/M%: 27.5%
HUVEC normal cells [3]; CisPt 5 μM vs untreated cells
  cell viability (MTT): significantly reduced
HUVEC normal cells [3]; CisPt 20 μM vs untreated cells
  cell viability (MTT): significantly reduced
HUVEC normal cells [3]; MTT
  IC 25: 5.82 ± 1.1 µM
  IC50: 20.9 ± 2.1 µM
[4]; 5 μM CisPt
  p21 pg/mL PE/CA-PJ49: 1157 pg/mL
[4]; 20 μM CisPt
  p21 pg/mL PE/CA-PJ49: 915 pg/mL
PE/CA-PJ49 tumor cells [5]; 5 μM CisPt
  Early Apoptosis = Q4 (%): 11.3%
  Late Apoptosis = Q2 (%): 1.2%
  Necrosis = Q1 (%): 2.1%
  Total Apoptosis = Q2 + Q4 (%): 12.5%
PE/CA-PJ49 tumor cells [5]; 20 μM CisPt
  Early Apoptosis = Q4 (%): 15.3%
  Late Apoptosis = Q2 (%): 2.1%
  Necrosis = Q1 (%): 1.4%
  Total Apoptosis = Q2 + Q4 (%): 17.4%
[6]; 5 μM CisPt
  p21 pg/mL HUVEC: 238 pg/mL
[6]; 20 μM CisPt
  p21 pg/mL HUVEC: 195 pg/mL
HUVEC normal cells [7]; 5 μM CisPt
  synthesis phase (S): 29.2%
HUVEC normal cells [7]; CisPt 20 μM
  S%: 39.65%
HUVEC normal cells [8]; 5 μM CisPt
  Early Apoptosis = Q4 (%): 5.6%
  Necrosis = Q1 (%): 1.6%
  Apoptoza Tarzie = Q2 (%): 0.5%
  Apoptoza Totală = Q2+Q4 (%): 6.1%
HUVEC normal cells [8]; 20 μM CisPt
  Early Apoptosis = Q4 (%): 7.7%
  Necrosis = Q1 (%): 1.5%
  Apoptoza Tarzie = Q2 (%): 0.5%
  Apoptoza Totală = Q2+Q4 (%): 8.2%

Source: article PMC7551591, “The Effect of Resveratrol or Curcumin on Head and Neck Cancer Cells Sensitivity to the Cytotoxic Effects of Cisplatin” (Nutrients, 2020)
